Drawing on patent US20250320189A1, “NEW DERIVATIVES FOR TREATING TRPM3 MEDIATED DISORDERS” (Katholieke Universiteit Leuven, priority 2022, published 2025), this text covers IC50 for 28 compounds.

The target in the assay is T1, mouse TRPM3α2 (mTRPM3) ion channel (Mus musculus, UniProt J9SQF3).
T1 construct: expressed in transfected cells; host or cells: flip-in (Flp-In) HEK293
Put plainly: Monitoring the TRPM3 ion channel driven Ca2+ uptake (Fluo-4 AM assay). In kind it is cell-based. The note with it: mTRPM3alpha2 overexpressing flip-in HEK293 cells, stimulated with Pregnenolone sulfate (PS) 50 μM. The procedure:
In order to monitor the inhibition of the mouse TRPM3α2 (mTRPM3) ion channel by the compounds of the invention, a cellular system making use of an mTRPM3alpha2 or hTRPM3 overexpressing cell line (flip-in HEK293) was used. The TRPM3 channel was stimulated/opened with Pregnenolone sulfate (PS) (50 μM) which results in Ca^2+ influx.
For mTRPM3, the intracellular Ca^2+ was measured with a Calcium responsive dye, Fluor-4 AMV ester (Invitrogen). Cells were cultured until a confluence of 80-90%, washed with Versene (Invitrogen) and detached from the surface by a short incubation with 0.05% Trypsin (Invitrogen). The trypsination process was stopped by the addition of complete cell culture medium (DMEM, glutamax, 10% FCS, NEAA,Pen-Strep). Cells were collected and resuspended in Krebs buffer without Calcium at RT.
Prior the cell seeding (±2000 cells/well into a black, 384 well plate (Greiner)) the diluted compound was added in the assay plate, together with the PS dissolved in Krebs buffer containing Calcium. […] Directly after cell addition the plates were read on an Envision fluorescence reader (PerkinElmer) by an Excitation of 485 nm and emission at 535 nm.
Channel inhibition was calculated compared to a non-PS stimulated control versus a condition stimulated with PS (50 μM) with vehicle. The ability of the compounds of the invention to inhibit this activity was determined as: Percentage inhibition=[1−((RFU determined for sample with test compound present−RFU determined for sample with positive control inhibitor) divided by (RFU determined in the presence of vehicle−RFU determined for sample with positive control inhibitor))]*100.
The activities of the Example compounds tested are depicted in the table below. The activity ranges A, B and C refer to IC50 values in the Fluo-4 AM assay as follows: “A”: IC50<1 μM; “B”: 1 μM≤IC50≤20 μM and “C”: IC50>20 μM

T1 sequence (J9SQF3 1-1709 isoform J9SQF3-12): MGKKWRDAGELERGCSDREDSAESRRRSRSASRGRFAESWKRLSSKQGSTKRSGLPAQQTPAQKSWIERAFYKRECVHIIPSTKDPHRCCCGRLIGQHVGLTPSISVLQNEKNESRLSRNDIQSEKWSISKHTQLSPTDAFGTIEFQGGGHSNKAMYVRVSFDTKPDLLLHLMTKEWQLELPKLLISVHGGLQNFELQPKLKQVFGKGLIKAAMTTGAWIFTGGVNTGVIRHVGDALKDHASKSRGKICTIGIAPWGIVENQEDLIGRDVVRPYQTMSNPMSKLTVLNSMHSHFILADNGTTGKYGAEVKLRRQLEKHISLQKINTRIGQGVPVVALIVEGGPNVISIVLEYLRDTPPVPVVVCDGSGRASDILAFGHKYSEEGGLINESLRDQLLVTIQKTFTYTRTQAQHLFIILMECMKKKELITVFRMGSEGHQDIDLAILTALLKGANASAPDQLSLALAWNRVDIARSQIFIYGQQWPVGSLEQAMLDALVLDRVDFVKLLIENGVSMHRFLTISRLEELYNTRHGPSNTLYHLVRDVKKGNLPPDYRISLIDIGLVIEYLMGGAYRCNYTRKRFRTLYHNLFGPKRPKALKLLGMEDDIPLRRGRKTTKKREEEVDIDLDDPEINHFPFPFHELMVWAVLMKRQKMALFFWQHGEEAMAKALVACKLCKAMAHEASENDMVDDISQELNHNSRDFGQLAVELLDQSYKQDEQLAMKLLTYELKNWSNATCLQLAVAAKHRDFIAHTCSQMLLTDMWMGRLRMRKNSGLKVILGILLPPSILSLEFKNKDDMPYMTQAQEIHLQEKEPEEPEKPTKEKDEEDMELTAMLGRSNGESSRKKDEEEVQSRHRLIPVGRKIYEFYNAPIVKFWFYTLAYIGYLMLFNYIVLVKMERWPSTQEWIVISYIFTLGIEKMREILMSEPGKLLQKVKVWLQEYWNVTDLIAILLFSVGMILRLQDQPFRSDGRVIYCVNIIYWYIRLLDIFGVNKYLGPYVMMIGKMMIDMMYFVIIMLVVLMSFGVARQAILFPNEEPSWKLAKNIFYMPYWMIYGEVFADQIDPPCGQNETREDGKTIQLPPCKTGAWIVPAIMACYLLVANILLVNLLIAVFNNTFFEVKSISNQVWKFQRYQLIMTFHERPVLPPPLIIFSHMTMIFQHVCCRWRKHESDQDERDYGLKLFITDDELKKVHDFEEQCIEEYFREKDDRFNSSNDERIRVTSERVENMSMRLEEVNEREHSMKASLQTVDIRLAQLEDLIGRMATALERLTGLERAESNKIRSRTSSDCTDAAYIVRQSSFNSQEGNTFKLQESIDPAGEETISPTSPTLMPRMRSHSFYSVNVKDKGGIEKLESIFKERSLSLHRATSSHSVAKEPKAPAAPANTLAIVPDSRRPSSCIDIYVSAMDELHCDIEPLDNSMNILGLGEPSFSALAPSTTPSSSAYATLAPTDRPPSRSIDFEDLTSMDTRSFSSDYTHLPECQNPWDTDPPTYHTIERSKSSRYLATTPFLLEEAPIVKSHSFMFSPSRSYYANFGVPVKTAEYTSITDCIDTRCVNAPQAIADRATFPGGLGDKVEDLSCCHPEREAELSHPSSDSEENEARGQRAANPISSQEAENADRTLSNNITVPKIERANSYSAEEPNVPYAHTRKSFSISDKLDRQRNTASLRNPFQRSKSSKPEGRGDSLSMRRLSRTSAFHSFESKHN

Compound `Cc1oc2ccc(OCC3(C)CC3)cc2c1C(=O)NC1CCNCC1(F)F` (single isomer, unassigned) [Cpd 032 - En2, N-(3,3-difluoropiperidin-4-yl)-2-methyl-5-[(1-methylcyclopropyl)methoxy]-1-benzofuran-3-carboxamide] gave an IC50 of 1000 to 20000 nM.
Next, `Cc1oc2ccc(OCC3CCC3)cc2c1C(=O)NC1CCNCC1(F)F` (single isomer, unassigned) [Cpd 019 - En2, 5-(cyclobutylmethoxy)-N-(3,3-difluoropiperidin-4-yl)-2-methyl-1-benzofuran-3-carboxamide]: under 1000 nM; `Cc1oc2ccc(OCC3CCC3)cc2c1C(=O)N[C@@H](CO)C(N)=O` [Cpd 006, (2S)-2-{[5-(cyclobutylmethoxy)-2-methyl-1-benzofuran-3-yl]formamido}-3-hydroxypropanamide]: under 1000 nM.
`Cc1oc2ccc(OCC3CC3)cc2c1C(=O)NC1(CO)CCNC1=O` (single isomer, unassigned) [Cpd 028 - En1, 5-(cyclopropylmethoxy)-N-[3-(hydroxymethyl)-2-oxopyrrolidin-3-yl]-2-methyl-1-benzofuran-3-carboxamide] showed an IC50 of under 1000 nM.
In turn, `Cc1oc2ccc(OCC3CC3(F)F)cc2c1C(=O)NC1CCNCC1(F)F` (single isomer, unassigned) [Cpd 031 - En3, 5-[(2,2-difluorocyclopropyl)methoxy]-N-(3,3-difluoropiperidin-4-yl)-2-methyl-1-benzofuran-3-carboxamide] had an IC50 of 1000 to 20000 nM.
Next, `COCC(C)(CO)NC(=O)c1c(C)oc2ccc(OCC3(C(F)(F)F)CC3)cc12` (single isomer, unassigned) [Cpd 060 - En2, N-(1-hydroxy-3-methoxy-2-methylpropan-2-yl)-2-methyl-5-{[1-(trifluoromethyl)cyclopropyl]methoxy}-1-benzofuran-3-carboxamide]: under 1000 nM; `Cc1oc2ccc(OCC3CC3)cc2c1C(=O)NC1CCOCC1` [Cpd 022, 5-(cyclopropylmethoxy)-2-methyl-N-(oxan-4-yl)-1-benzofuran-3-carboxamide]: 1000 to 20000 nM; `Cc1oc2ccc(OCC3CC(F)(F)C3)cc2c1C(=O)NC(C)(CO)C(N)=O` (single isomer, unassigned) [Cpd 054 - En1, 2-({5-[(3,3-difluorocyclobutyl)methoxy]-2-methyl-1-benzofuran-3-yl}formamido)-3-hydroxy-2-methylpropanamide]: 1000 to 20000 nM.
The compound `Cc1oc2ccc(OCC(F)F)cc2c1C(=O)N[C@H](C(N)=O)[C@@H](C)O` [Cpd 040, (2S,3R)-2-{[5-(2,2-difluoroethoxy)-2-methyl-1-benzofuran-3-yl]formamido}-3-hydroxybutanamide] registered an IC50 of under 1000 nM.
The compound `Cc1oc2ccc(OCC3(C(F)(F)F)CC3)cc2c1C(=O)NC(C)(CO)C(N)=O` (single isomer, unassigned) [Cpd 048 - En1, 3-hydroxy-2-methyl-2-[(2-methyl-5-{[1-(trifluoromethyl)cyclopropyl]methoxy}-1-benzofuran-3-yl)formamido]propanamide] returned a half-maximal inhibitory concentration (IC50) of under 1000 nM.
In the case of `Cc1oc2ccc(OCC3(C)CC3)cc2c1C(=O)NC1CCNCC1(F)F` (single isomer, unassigned) [Cpd 032 - En1, N-(3,3-difluoropiperidin-4-yl)-2-methyl-5-[(1-methylcyclopropyl)methoxy]-1-benzofuran-3-carboxamide], the half-inhibitory concentration (IC50) was under 1000 nM.
Consider `Cc1oc2ccc(OCC(F)(F)F)cc2c1C(=O)NC(C)(CO)C(N)=O` (single isomer, unassigned) [Cpd 047 - En1, 3-hydroxy-2-methyl-2-{[2-methyl-5-(2,2,2-trifluoroethoxy)-1-benzofuran-3-yl]formamido}propanamide], for which the half-maximal inhibitory concentration (IC50) lay in the range of 1000 to 20000 nM.
The compound `Cc1oc2ccc(OCC3CC3)cc2c1C(=O)NC(CO)C(N)C(F)(F)F` (single isomer, unassigned) [Cpd 056 - En3, N-[(2)-3-amino-4,4,4-trifluoro-1-hydroxybutan-2-yl]-5-(cyclopropylmethoxy)-2-methyl-1-benzofuran-3-carboxamide] yielded an IC50 of under 1000 nM.
`Cc1oc2ccc(OCC3CC3)cc2c1C(=O)NC(CO)C(N)C(F)(F)F` (single isomer, unassigned) [Cpd 056 - En1, N-[(2)-3-amino-4,4,4-trifluoro-1-hydroxybutan-2-yl]-5-(cyclopropylmethoxy)-2-methyl-1-benzofuran-3-carboxamide] returned an IC50 of 1000 to 20000 nM.
For the compound `Cc1oc2ccc(OCC3(C(F)F)CC3)cc2c1C(=O)NC1(C(N)=O)CCOC1` (single isomer, unassigned) [Cpd 036 - En1, N-(3-carbamoyloxolan-3-yl)-5-{[1-(difluoromethyl)cyclopropyl]methoxy}-2-methyl-1-benzofuran-3-carboxamide], the 50% inhibitory concentration (IC50) lay within 1000 to 20000 nM.
`Cc1oc2ccc(OC[C@H]3C[C@@H](C)C3)cc2c1C(=O)NC(C)(CO)C(N)=O` (single isomer, unassigned) [Cpd 058 - En1, Cis-3-hydroxy-2-methyl-2-({2-methyl-5-[(3-methylcyclobutyl)methoxy]-1-benzofuran-3-yl}formamido)propenamide] registered a 50% inhibitory concentration (IC50) of under 1000 nM.
`Cc1oc2ccc(OCC(C)C)cc2c1C(=O)NC1CCNCC1(F)F` (single isomer, unassigned) [Cpd 042 - En2, N-(3,3-difluoropiperidin-4-yl)-2-methyl-5-(2-methylpropoxy)-1-benzofuran-3-carboxamide] registered a 50% inhibitory concentration (IC50) of under 1000 nM.
The compound `Cc1oc2ccc(OCC3CC3)cc2c1C(=O)NC1(C(N)=O)CCOC1` (single isomer, unassigned) [Cpd 035 - En1, N-(3-carbamoyloxolan-3-yl)-5-(cyclopropylmethoxy)-2-methyl-1-benzofuran-3-carboxamide] registered a half-maximal inhibitory concentration (IC50) of under 1000 nM.
Turning to `Cc1oc2ccc(OCC3CC3)cc2c1C(=O)NC(C)(CO)C(N)=O` (single isomer, unassigned) [Cpd 017 - En2, 2-{[5-(cyclopropylmethoxy)-2-methyl-1-benzofuran-3-yl]formamido}-3-hydroxy-2-methylpropanamide], the half-inhibitory concentration (IC50) is under 1000 nM.
Turning to `Cc1oc2ccc(OCC(C)C)cc2c1C(=O)NC1CCNCC1(F)F` (single isomer, unassigned) [Cpd 042-En1, N-(3,3-difluoropiperidin-4-yl)-2-methyl-5-(2-methylpropoxy)-1-benzofuran-3-carboxamide], the IC50 lay in the range of 1000 to 20000 nM.
In the case of `Cc1oc2ccc(OCCC3CC3)cc2c1C(=O)N[C@@H](CO)C(N)=O` [Cpd 005, (2S)-2-{[5-(2-cyclopropylethoxy)-2-methyl-1-benzofuran-3-yl]formamido}-3-hydroxypropanamide], the 50% inhibitory concentration (IC50) is under 1000 nM.
In turn, `Cc1oc2ccc(OCC3CC3)cc2c1C(=O)NC1(CO)CCCNC1=O` (single isomer, unassigned) [Cpd 027 - En1, 5-(cyclopropylmethoxy)-N-[3-(hydroxymethyl)-2-oxopiperidin-3-yl]-2-methyl-1-benzofuran-3-carboxamide] yielded an IC50 of under 1000 nM.
Compound `Cc1oc2ccc(OCC3CC3)cc2c1C(=O)NC(CO)C(N)C(F)(F)F` (single isomer, unassigned) [Cpd 056 - En4, N-[(2)-3-amino-4,4,4-trifluoro-1-hydroxybutan-2-yl]-5-(cyclopropylmethoxy)-2-methyl-1-benzofuran-3-carboxamide] had an IC50 of 1000 to 20000 nM.
`Cc1oc2ccc(OCC3CCC3)cc2c1C(=O)N[C@@H](C)C(N)=O` [Cpd 007, (2S)-2-{[5-(cyclobutylmethoxy)-2-methyl-1-benzofuran-3-yl]formamido}propanamide]: the concentration for half-maximal inhibition (IC50) is under 1000 nM.
Compound `Cc1oc2ccc(OCC3CC3(C)C)cc2c1C(=O)NC1CCNCC1(F)F` (single isomer, unassigned) [Cpd 033-En2, N-(3,3-difluoropiperidin-4-yl)-5-[(2,2-dimethylcyclopropyl)methoxy]-2-methyl-1-benzofuran-3-carboxamide] yielded an IC50 of 1000 to 20000 nM.
Turning to `Cc1oc2ccc(OCC3CC3(F)F)cc2c1C(=O)NC(CO)CC(F)(F)F` (single isomer, unassigned) [Cpd 057 - En1, 5-[(2,2-difluorocyclopropyl)methoxy]-2-methyl-N-(4,4,4-trifluoro-1-hydroxybutan-2-yl)-1-benzofuran-3-carboxamide], the IC50 is under 1000 nM.
In the case of `Cc1oc2ccc(OCC3CC3)cc2c1C(=O)N[C@@H](CO)C(N)=O` [Cpd 001, (2S)-2-{[5-(cyclopropylmethoxy)-2-methyl-1-benzofuran-3-yl]formamido}-3-hydroxypropanamide], the IC50 is under 1000 nM.
`Cc1oc2ccc(OCC3CC3)cc2c1C(=O)NC(CO)C(N)C(F)(F)F` (single isomer, unassigned) [Cpd 056 - En2, N-[(2)-3-amino-4,4,4-trifluoro-1-hydroxybutan-2-yl]-5-(cyclopropylmethoxy)-2-methyl-1-benzofuran-3-carboxamide] gave an IC50 of under 1000 nM.

Broadly, the IC50 is the midpoint of a concentration-inhibition curve. High values mean weaker potency in that assay, low ones greater potency in that assay.
